Measured values: ChEMBL document CHEMBL3044807, “Synthesis and biological evaluation of new ozonides with improved plant growth regulatory activity” (2009)

Tests used:
Assay type in all cases: functional
[1] = system: Sorghum bicolor; test: Phytotoxic activity against Sorghum bicolor seedlings assessed as germination at 5x10'-4 mol/l at 28 +/-1 degC after 48 hr by acid-washed sand based radicle elongation assay (reference value: 100%)
[2] = system: Cucumis sativus; test: Phytotoxic activity against Cucumis sativus (cucumber) seedlings assessed as germination at 5x10'-4 mol/l at 28 +/-1 degC after 48 hr by acid-washed sand based radicle elongation assay (reference value: 100%)
[3] = system: Urochloa decumbens; test: Phytotoxic activity against Urochloa decumbens assessed as aerial part growth inhibition at 5.0 x 10^-4 mol/l measured 21 days after seed sowing under greenhouse trials (reference value: 0.0%); conditions: 504 h
[4] = system: Urochloa decumbens; test: Phytotoxic activity against Urochloa decumbens assessed as weight of root at 5.0 x 10^-4 mol/l measured 21 days after seed sowing under greenhouse trials (reference value: 21.2 mg)
[5] = system: Urochloa decumbens; test: Phytotoxic activity against Urochloa decumbens assessed as root growth inhibition at 5.0 x 10^-4 mol/l measured 21 days after seed sowing under greenhouse trials (reference value: 0.0%); conditions: 504 h
[6] = system: Sorghum bicolor; test: Phytotoxic activity against Sorghum bicolor seedlings assessed as inhibition of radicle growth at 5x10'-4 mol/l at 28 +/-1 degC after 48 hr by acid-washed sand based radicle elongation assay (reference value: 0.0%)
[7] = system: Sorghum bicolor; test: Phytotoxic activity against Sorghum bicolor assessed as root growth inhibition at 5.0 x 10^-4 mol/l measured 15 days after seed sowing under greenhouse trials (reference value: 0.0%); conditions: 360 h
[8] = system: Sorghum bicolor; test: Phytotoxic activity against Sorghum bicolor assessed as weight of aerial parts at 5.0 x 10^-4 mol/l measured 15 days after seed sowing under greenhouse trials (reference value: 19.0 mg)
[9] = system: Ipomoea grandifolia; test: Phytotoxic activity against Ipomoea grandifolia assessed as root growth inhibition at 5.0 x 10^-4 mol/l measured 21 days after seed sowing under greenhouse trials (reference value: 0.0%); conditions: 504 h
[10] = system: Cucumis sativus; test: Phytotoxic activity against Cucumis sativus (cucumber) assessed as weight of roots at 5.0 x 10^-4 mol/l measured 15 days after seed sowing under greenhouse trials (reference value: 31.0 mg)
[11] = system: Sorghum bicolor; test: Phytotoxic activity against Sorghum bicolor assessed as weight of roots at 5.0 x 10^-4 mol/l measured 15 days after seed sowing under greenhouse trials (reference value: 14.0 mg)
[12] = system: Cucumis sativus; test: Phytotoxic activity against Cucumis sativus (cucumber) seedlings assessed as radicle length at 5x10'-4 mol/l at 28 +/-1 degC after 48 hr by acid-washed sand based radicle elongation assay (reference value: 4.8 cm)
[13] = system: Cucumis sativus; test: Phytotoxic activity against Cucumis sativus (cucumber) assessed as aerial part growth inhibition at 5.0 x 10^-4 mol/l measured 15 days after seed sowing under greenhouse trials (reference value: 0.0%); conditions: 360 h
[14] = system: Cucumis sativus; test: Phytotoxic activity against Cucumis sativus (cucumber) assessed as weight of aerial parts at 5.0 x 10^-4 mol/l measured 15 days after seed sowing under greenhouse trials (reference value: 47.0 mg)
[15] = system: Sorghum bicolor; test: Phytotoxic activity against Sorghum bicolor assessed as aerial part growth inhibition at 5.0 x 10^-4 mol/l measured 15 days after seed sowing under greenhouse trials (reference value: 0.0%); conditions: 360 h
[16] = system: Cucumis sativus; test: Phytotoxic activity against Cucumis sativus (cucumber) assessed as root growth inhibition at 5.0 x 10^-4 mol/l measured 15 days after seed sowing under greenhouse trials (reference value: 0.0%); conditions: 360 h
[17] = system: Sorghum bicolor; test: Phytotoxic activity against Sorghum bicolor seedlings assessed as radicle length at 5x10'-4 mol/l at 28 +/-1 degC after 48 hr by acid-washed sand based radicle elongation assay (reference value: 5.1 cm)
[18] = system: Ipomoea grandifolia; test: Phytotoxic activity against Ipomoea grandifolia assessed as aerial part growth inhibition at 5.0 x 10^-4 mol/l measured 21 days after seed sowing under greenhouse trials (reference value: 0.0%); conditions: 504 h
[19] = system: Ipomoea grandifolia; test: Phytotoxic activity against Ipomoea grandifolia assessed as weight of aerial parts at 5.0 x 10^-4 mol/l measured 21 days after seed sowing under greenhouse trials (reference value: 17.8 mg)
[20] = system: Cucumis sativus; test: Phytotoxic activity against Cucumis sativus (cucumber) seedlings assessed as inhibition of radicle growth at 5x10'-4 mol/l at 28 +/-1 degC after 48 hr by acid-washed sand based radicle elongation assay (reference value: 0.0%)
[21] = system: Urochloa decumbens; test: Phytotoxic activity against Urochloa decumbens assessed as weight of aerial parts at 5.0 x 10^-4 mol/l measured 21 days after seed sowing under greenhouse trials (reference value: 22.0 mg)
[22] = system: Ipomoea grandifolia; test: Phytotoxic activity against Ipomoea grandifolia assessed as weight of root at 5.0 x 10^-4 mol/l measured 21 days after seed sowing under greenhouse trials (reference value: 18.4 mg)

`O=C1C2CCCCC1C1OC2C2OOC1O2` showed a germination % at 500 µM [1] of 96%, a germination % at 500 µM [2] of 100% and an inhibition at 500 µM [3] of 44.1%. For the same compound, the Activity [4] was 8.3 mg, the inhibition at 500 µM [5] was 60.2% and the inhibition at 500 µM [6] was 59.7%. It also gave an inhibition at 500 µM [7] of 26.4%, an Activity [8] of 10.4 mg and an inhibition at 500 µM [9] of 53.6%. For the same compound, the Activity [10] was 6.9 mg, the Activity [11] was 10.3 mg and the Activity [12] was 1.5 cm. For the same compound, the inhibition at 500 µM [13] was 27.5%, the Activity [14] was 34.1 mg and the inhibition at 500 µM [15] was 45.1%. For the same compound, the inhibition at 500 µM [16] was 77.8%, the Activity [17] was 2.1 cm and the inhibition at 500 µM [18] was 46.5%. For the same compound, the Activity [19] was 9.6 mg, the inhibition at 500 µM [20] was 68.5% and the Activity [21] was 12.3 mg. For the same compound, the Activity [22] was 7.4 mg.
For `CCC12OC(C3OOC1O3)C1CCCCC2C1=O` (mixture of isomers), the germination % at 500 µM [1] was 100%, the germination % at 500 µM [2] was 96% and the inhibition at 500 µM [3] was 74.4%. The Activity [4] was 4.6 mg, the inhibition at 500 µM [5] was 77.9% and the inhibition at 500 µM [6] was 52.5%. For the same compound, the inhibition at 500 µM [7] was 27.1%, the Activity [8] was 10.3 mg and the inhibition at 500 µM [9] was 43%. It also gave an Activity [10] of 7.7 mg, an Activity [11] of 10.2 mg and an Activity [12] of 2.1 cm. The inhibition at 500 µM [13] was 48%, the Activity [14] was 24.4 mg and the inhibition at 500 µM [15] was 45.4%. For the same compound, the inhibition at 500 µM [16] was 75.2%, the Activity [17] was 2.4 cm and the inhibition at 500 µM [18] was 47.7%. For the same compound, the Activity [19] was 9.4 mg, the inhibition at 500 µM [20] was 57.2% and the Activity [21] was 5.7 mg. For the same compound, the Activity [22] was 9.1 mg.
`CC12OC(C)(C3OOC1O3)C1CCCCC2C1=O` (mixture of isomers) was tested, and the germination % at 500 µM [1] was 100%, the germination % at 500 µM [2] was 100% and the inhibition at 500 µM [3] was 79.7%. For the same compound, the Activity [4] was 3.6 mg, the inhibition at 500 µM [5] was 83% and the inhibition at 500 µM [6] was 47.1%. For the same compound, the inhibition at 500 µM [7] was 18.2%, the Activity [8] was 8.8 mg and the inhibition at 500 µM [9] was 64.6%. It also gave an Activity [10] of 6.3 mg, an Activity [11] of 11.5 mg and an Activity [12] of 1.5 cm. For the same compound, the inhibition at 500 µM [13] was 43.8%, the Activity [14] was 26.4 mg and the inhibition at 500 µM [15] was 53.9%. It also gave an inhibition at 500 µM [16] of 79.7%, an Activity [17] of 2.7 cm and an inhibition at 500 µM [18] of 65.4%. The Activity [19] was 6.2 mg, the inhibition at 500 µM [20] was 69.1% and the Activity [21] was 4.4 mg. The Activity [22] was 5.7 mg.
